In US7345089B2, “Microbial method of making equol-containing composition and product made” (Otsuka Pharmaceutical Co., Ltd., priority 1997, dated 2008):

Tests used:
[1] = Urinary excretion of isoflavonoids after single ingestion of soy milk in healthy adult volunteers; conditions: healthy adult volunteers 25-33 years of age
[2] = Determination of urinary excretions of isoflavonoids in perimenopausal women (survey)
Experimental: To accomplish the above object, the inventors first conducted a dietary survey, determination of urinary excretions of isoflavonoids, and a questionnaire survey about menopausal syndrome (unidentified clinical syndrome) in perimenopausal women in a broad geographical area including urban communities.
Furthermore, women with paramenia and those within 5 years of the menopause being taken together as menopausal subjects, a questionnaire survey was conducted using 17 items which are in routine use in the diagnosis of menopausal syndrome [17 items as a modification of Kupperman menopausal index (Kupperman H. S., et al., (1953), J. Clin. Endocrinol. Metabol., 13, 688-703), i.e. 1. hot flushes, 2. perspiration, 3. local sensation of cold, 4. shortness of breath, 5. numbness of limbs, 6. hypesthesia, 7. difficulty in falling asleep, 8. fitful sleep, 9. irritability, 10. nervousness, 11. melancholy, 12. vertigo, nausea, 13. weakness(fatigue), 14. stiff shoulders, pain in joints, muscular pain, 15. headache, 16. palpitation, 17. tingling sensation] and the simplified menopausal index (SMI) was calculated. With subjects with SMI values not less than 20 being taken as a group of high climacteric symptoms and those with SMI values not greater than 19 as a group of low climacteric symptoms, the amount of intake of isoflavonoids and the urinary excretion of isoflavonoids were respectively compared between the groups.

[3] = human, in vivo
[4] = SMI not less than 20 vs SMI not greater than 19, equol p<0.01

urinary excretions after single ingestion of soy milk [1] | urinary excretions, group of high climacteric symptoms vs group of low climacteric symptoms [2, 4] | average urinary excretions of isoflavonoids ([2]; female, human, in vivo) | equol in urine when intake of soy milk increased two-fold [3] | average excretions of equol (urinary) ([2]; in vivo) | subjects in whom detected in urine ([2]; in vivo) | urinary excretions, group of high climacteric symptoms vs group of low climacteric symptoms ([2]; in vivo) | subjects in whom detected in urine ([2]; of the 95 subjects, number (%)) | average urinary excretions of isoflavonoids ([2]; women aged between 40 and 60) | SMILES
increased in a dose-related fashion | no intergroup difference | 19.6 µmol/day | – | – | – | – | – | – | O=c1c(-c2ccc(O)cc2)coc2cc(O)ccc12 [daidzein]
– | – | – | not detected | 11.9 µmol/day | 46 (51.6%) | significantly low | – | – | Oc1ccc(C2COc3cc(O)ccc3C2)cc1 (centres unmarked) [equol]
increased in a dose-related fashion | no intergroup difference | – | – | – | – | – | detected in all the subjects | 10.0 µmol/day | O=c1c(-c2ccc(O)cc2)coc2cc(O)cc(O)c12 [genistein]
